Measured values reported in patent US20260069584A1, “METHODS OF TREATING CHRONIC MYELOID LEUKEMIA USING THE TYROSINE KINASE INHIBITOR VODOBATINIB” (Sun Pharma Advanced Research Company Ltd., priority 2022, published 2026).
Where two headings read alike, the source gives them in different places.

What was measured:
[1] = tested on: cell lines expressing Ph+ wild-type and mutant forms of BCR-ABL1; test: Growth inhibition of cell lines; type: cell-based
[2] = Single ascending dose (SAD) study in healthy male volunteers: pharmacokinetics; type: in vivo, human; conditions: for Dose proportionality, Slope Estimate: 6 to 24 mg, n 18, power model; for Dose proportionality, Coefficient of determination / Dose proportionality, Intercept Estimate: n 18
Method: Initially in the single ascending dose (SAD) study the safety, tolerability, and pharmacokinetics of the compound of Formula I at 6 mg, 12 mg, and 24 mg doses in healthy human male volunteers were evaluated. In this study, the healthy male volunteers within the mean age group of 28.7-35 years were orally administered an investigational medicinal product (IMP) or a placebo after an overnight fast (of at least 8 hours). The IMP used in this study was a hard gelatin capsule comprising the compound of Formula I of varying sizes containing either 6 mg or 24 mg of the compound of Formula I and the excipients. For the 12 mg dose, two capsules of 6 mg were used. The placebo formulation containing the excipients matched the compound of Formula I capsules in shape, size, and color. […] The median time of maximum concentration (Tmax: 2.5-3 hours, across dose range) was independent of the dose level. Dose-related increases in exposure (AUC and Cmax) were observed. […] The inter-subject variability, for the PK parameters, was generally higher in the 12 mg dose group when compared with that in the 6 mg and 24 mg dose groups (Table 07, and FIG. 1)
Referring to FIG. 1, The dose proportionality assessment using ANCOVA was assessed in the PK analysis set. […] The estimates for the slope for all exposure parameters were between 0.9833 and 1.016.

[3] = Single- and repeat-dose studies in preclinical models, oral route
[4] = male, human, plasma, oral, 6 mg (N = 6), mean
[5] = male, human, plasma, oral, 12 mg (N = 6), mean
[6] = male, human, plasma, oral, 24 mg (N = 6), mean

## Cc1ccc(C(=O)NNC(=O)c2c(C)cccc2Cl)cc1C#Cc1cnc2ccccc2c1 [compound of Formula I, N′-(2-chloro-6-methylbenzoyl)-4-methyl-3-[2-(3-quinolyl)ethynyl]-benzohydrazide]
[1]
  effect on cell lines: growth inhibition
[2]; 6 mg (N = 6), geometric mean
  CL/F: 3.708 L/h
[2]; 6 mg (N = 6), mean
  AUC(0-inf)/D: 289 [ng/mL × hour]/mg
[2]; 12 mg (N = 6), geometric mean
  CL/F: 4.956 L/h
[2]; 12 mg (N = 6), mean
  AUC(0-inf)/D: 230.3 [ng/mL × hour]/mg
[2]; 12 mg (N = 6), median
  Tmax: 3 h
[2]; 24 mg (N = 6), geometric mean
  CL/F: 3.8 L/h
[2]; 24 mg (N = 6), mean
  AUC(0-inf)/D: 274.3 [ng/mL × hour]/mg
[2]; 24 mg (N = 6), median
  Tmax: 2.75 h
[2]; AUC(0-inf) (ng*h/mL)
  Dose proportionality, Slope Estimate: 0.9833
  Dose proportionality, Coefficient of determination: 0.6145
  Dose proportionality, Intercept Estimate: 5.534
[2]; AUC(0-last) (ng*h/mL)
  Dose proportionality, Slope Estimate: 1.016
  Dose proportionality, Coefficient of determination: 0.6425
  Dose proportionality, Intercept Estimate: 5.389
[2]; Cmax (ng/mL)
  Dose proportionality, Slope Estimate: 0.9884
  Dose proportionality, Coefficient of determination: 0.6832
  Dose proportionality, Intercept Estimate: 3.470
[2]; across dose range 6, 12, 24 mg
  apparent systemic clearance (CL/F): 3.708 to 4.956 L/h
[2]; male, human, plasma, oral, 6 mg, 6 mg (N = 6), geometric mean, read-out: Vz/F
  Vd/F: 91.6 L
[2]; male, human, plasma, oral, 6 mg, 6 mg (N = 6), geometric mean, read-out: t1/2 (converted)
  half-life: 17.1 h
[2]; male, human, plasma, oral, 6 mg, 6 mg (N = 6), mean, read-out: AUC(0-24)
  AUC(0-t): 1.14 µg·h/mL
[2]; male, human, plasma, oral, 6 mg, 6 mg (N = 6), mean, read-out: AUC(0-last)
  AUC(0-t): 1.57 µg·h/mL
[2]; male, human, plasma, oral, 12 mg, 12 mg (N = 6), geometric mean, read-out: Vz/F
  Vd/F: 90.8 L
[2]; male, human, plasma, oral, 12 mg, 12 mg (N = 6), geometric mean, read-out: t1/2 (converted)
  half-life: 12.7 h
[2]; male, human, plasma, oral, 12 mg, 12 mg (N = 6), mean, read-out: AUC(0-24)
  AUC(0-t): 1.92 µg·h/mL
[2]; male, human, plasma, oral, 12 mg, 12 mg (N = 6), mean, read-out: AUC(0-last)
  AUC(0-t): 2.64 µg·h/mL
[2]; male, human, plasma, oral, 24 mg, 24 mg (N = 6), geometric mean, read-out: Vz/F
  Vd/F: 69.8 L
[2]; male, human, plasma, oral, 24 mg, 24 mg (N = 6), geometric mean, read-out: t1/2 (converted)
  half-life: 12.7 h
[2]; male, human, plasma, oral, 24 mg, 24 mg (N = 6), mean, read-out: AUC(0-24)
  AUC(0-t): 4.75 µg·h/mL
[2]; male, human, plasma, oral, 24 mg, 24 mg (N = 6), mean, read-out: AUC(0-last)
  AUC(0-t): 6.24 µg·h/mL
[2]; male, human, plasma, oral, 24 mg, SAD study, read-out: maximum value of AUC(0-24)
  AUC(0-t): 6.08 µg·h/mL
[2]; male, human, plasma, oral, 24 mg, across dose range 6, 12, 24 mg, read-out: apparent terminal half-life (t1/2)
  half-life: 12.7 to 17.1 h
[2]; male, human, plasma, oral, 24 mg, across dose range 6, 12, 24 mg, read-out: apparent volume of distribution (Vz/F)
  Vd/F: 69.8 to 91.6 L
[2]; male, human, plasma, oral, 24 mg, highest dose level (24 mg), read-out: mean AUC(0-24)
  AUC(0-t): 4.75 µg·h/mL
[2]; [4]
  AUC(0-inf): 1.74 µg·h/mL
  Cmax: 0.234 µg/mL
[2]; male, human, plasma, oral, 6 mg (N = 6), median, read-out: tmax
  Tmax: 2.5 h
[2]; [5]
  AUC(0-inf): 2.77 µg·h/mL
  Cmax: 0.285 µg/mL
[2]; [6]
  AUC(0-inf): 6.58 µg·h/mL
  Cmax: 0.909 µg/mL
[2]; male, human, plasma, oral, across dose range 6, 12, 24 mg, read-out: median time of maximum concentration (Tmax)
  Tmax: 2.5 to 3 h
[2]; single dose 6 mg, 12 mg, or 24 mg
  absorption after oral administration: rapidly absorbed
[3]; multiple efficacious doses
  adverse events: no specific adverse events
[3]; oral route, daily dosing
  systemic exposure: systemic bioavailability
[3]; plasma, oral
  AUC: 13.3 µg·h/mL
Part C: adverse events; 19 subjects
  TEAE cough: 21.1%
  TEAE dyspnea: 21.1%
  TEAE fatigue: 21.1%
  TEAE nausea: 26.3%
  TEAE neutropenia: 21.1%
  TEAE rash: 26.3%
  TEAE thrombocytopenia: 31.6%
Part C: adverse events; All Grades (N = 19)
  Abdominal pain: 2 (10.5) n (%)
  Anaemia: 3 (15.8) n (%)
  Arthralgia: 2 (10.5) n (%)
  Back pain: 2 (10.5) n (%)
  COVID-19: 2 (10.5) n (%)
  Chest pain: 2 (10.5) n (%)
  Constipation: 3 (15.8) n (%)
  Contusion: 2 (10.5) n (%)
  Cough: 4 (21.1) n (%)
  Diarrhoea: 3 (15.8) n (%)
  Dizziness: 2 (10.5) n (%)
  Dry skin: 3 (15.8) n (%)
  Dyspnoea: 4 (21.1) n (%)
  Fatigue: 4 (21.1) n (%)
  Flank pain: 2 (10.5) n (%)
  Headache: 3 (15.8) n (%)
  Herpes zoster: 2 (10.5) n (%)
  Hypertension: 3 (15.8) n (%)
  Hyperuricaemia: 2 (10.5) n (%)
  Hypocalcaemia: 2 (10.5) n (%)
  Hypokalaemia: 2 (10.5) n (%)
  Hypophosphataemia: 2 (10.5) n (%)
  Muscle spasms: 2 (10.5) n (%)
  Nasopharyngitis: 2 (10.5) n (%)
  Nausea: 5 (26.3) n (%)
  Neutropenia: 4 (21.1) n (%)
  Oropharyngeal pain: 2 (10.5) n (%)
  Pancytopenia: 2 (10.5) n (%)
  Rash: 5 (26.3) n (%)
  thrombocytopenia: 6 (31.6) n (%)
Part C: adverse events; Grade 3 or 4 (N = 9)
  Abdominal pain: 0 n
  Anaemia: 1 n
  Arthralgia: 0 n
  Back pain: 0 n
  COVID-19: 1 n
  Chest pain: 0 n
  Constipation: 0 n
  Contusion: 0 n
  Cough: 0 n
  Diarrhoea: 1 n
  Dizziness: 0 n
  Dry skin: 0 n
  Dyspnoea: 1 n
  Fatigue: 0 n
  Flank pain: 0 n
  Headache: 0 n
  Herpes zoster: 0 n
  Hypertension: 0 n
  Hyperuricaemia: 0 n
  Hypocalcaemia: 1 n
  Hypokalaemia: 1 n
  Hypophosphataemia: 0 n
  Muscle spasms: 0 n
  Nasopharyngitis: 0 n
  Nausea: 1 n
  Neutropenia: 3 n
  Oropharyngeal pain: 0 n
  Pancytopenia: 1 n
  Rash: 0 n
  thrombocytopenia: 4 n
Part C: adverse events; heavily pre-treated CML population
  tolerability: well tolerated
Part C: adverse events; in vivo
  Grade 3 or 4 TEAE neutropenia: 33.3%
  Grade 3 or 4 TEAE thrombocytopenia: 44.4%
